From patent US8952024B2, “Herbicidal pyrimidone derivatives” (E I du Pont de Nemours and Company, priority 2009, dated 2015)

Key:
Experiment in all cases: Test B pre-/postemergence plant response
Format in all cases: in vivo
[1] = tested on: corn (Zea mays); conditions: for Corn plant response rating (0 to 100 scale): 0 is no effect, 13 to 15 days
Procedure, shortened: (§1)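 Visual injury, 0–100 scale (100 = complete control), rated against controls after 13 to 15 days in greenhouse. Pre-emergence: seeds in loam/sand soil, treated at planting. Post-emergence: 1- to 4-leaf plants (2 to 18 cm) in peat/vermiculite medium. Compounds formulated in non-phytotoxic solvent with surfactant.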

[2] = tested on: velvetleaf (Abutilon theophrasti); conditions: for Velvetleaf plant response rating (0 to 100 scale): 0 is no effect, 13 to 15 days
Procedure, shortened: as §1

[3] = tested on: johnsongrass (Sorghum halepense); conditions: for Johnsongrass plant response rating (0 to 100 scale): 0 is no effect, 13 to 15 days
Procedure, shortened: as §1

[4] = tested on: giant foxtail (Setaria faberii); conditions: for Foxtail, Giant plant response rating (0 to 100 scale): 0 is no effect, 13 to 15 days
Procedure, shortened: as §1

[5] = tested on: Italian ryegrass (Lolium multiflorum); conditions: for Ryegrass, Italian plant response rating (0 to 100 scale): 0 is no effect, 13 to 15 days
Procedure, shortened: as §1

[6] = tested on: cocklebur (Xanthium strumarium); conditions: for Cocklebur plant response rating (0 to 100 scale): 0 is no effect, 13 to 15 days
Procedure, shortened: as §1

[7] = tested on: blackgrass (Alopecurus myosuroides); conditions: for Blackgrass plant response rating (0 to 100 scale): 0 is no effect, 13 to 15 days
Procedure, shortened: as §1

[8] = tested on: kochia (Kochia scoparia); conditions: for Kochia plant response rating (0 to 100 scale): 0 is no effect, 13 to 15 days
Procedure, shortened: as §1

[9] = tested on: green foxtail (Setaria viridis); conditions: for Foxtail, Green plant response rating (0 to 100 scale): 0 is no effect, 13 to 15 days
Procedure, shortened: as §1

[10] = tested on: morningglory (Ipomoea coccinea); conditions: for Morningglory plant response rating (0 to 100 scale): 0 is no effect, 13 to 15 days
Procedure, shortened: as §1

[11] = tested on: large crabgrass (Digitaria sanguinalis); conditions: for Crabgrass, Large plant response rating (0 to 100 scale): 0 is no effect, 13 to 15 days
Procedure, shortened: as §1

[12] = tested on: goosegrass (Eleusine indica); conditions: for Goosegrass plant response rating (0 to 100 scale): 0 is no effect, 13 to 15 days
Procedure, shortened: as §1

[13] = tested on: soybean (Glycine max); conditions: for Soybean plant response rating (0 to 100 scale): 62 g ai/ha, 0 is no effect, 13 to 15 days
Procedure, shortened: as §1

[14] = tested on: ragweed (common ragweed, Ambrosia elatior); conditions: for Ragweed plant response rating (0 to 100 scale): 0 is no effect, 13 to 15 days
Procedure, shortened: as §1

[15] = 31 g ai/ha, postemergence, scale 0 to 100, 0 is no effect, 100 is complete control
[16] = 62 g ai/ha, postemergence, 100 is complete control
[17] = Postemergence, 125 g ai/ha, visual rating after 13 to 15 days, scale 0 (no effect) to 100 (complete control)
[18] = Postemergence, 250 g ai/ha, scale 0 to 100 (0 no effect, 100 complete control)
[19] = Preemergence, 31 g ai/ha, scale 0 to 100 (0 no effect, 100 complete control)
[20] = Preemergence, 62 g ai/ha, scale 0 to 100 (0 no effect, 100 complete control)
[21] = Preemergence, 125 g ai/ha, scale 0 to 100, 0 no effect, 100 complete control
[22] = Preemergence, 250 g ai/ha, 0 to 100 scale
[23] = postemergence, 100 is complete control

CCCn1c(-c2cccs2)ncc(C(=O)C2=C(O)CCCC2=O)c1=O [Compound 77]
45: Foxtail, Giant plant response rating [4, 22]
15: Foxtail, Green plant response rating [9, 22]
55: Plant response rating, Crabgrass, Large [11, 15] | Plant response rating, Goosegrass [12, 19]
100: Plant response rating, Velvetleaf [2, 18] | Plant response rating, Velvetleaf [2, 20] | Plant response rating, Velvetleaf [2, 21] | Velvetleaf plant response rating [2, 22] | Crabgrass, Large plant response rating [11, 22]
5: Corn plant response rating (0 to 100 scale) [1, 16] | Plant response rating, Foxtail, Giant [4, 21] | Ryegrass, Italian plant response rating (0 to 100 scale) [5, 16] | Plant response rating, Ryegrass, Italian [5, 17] | Plant response rating, Blackgrass [7, 18]
95: Plant response rating, Velvetleaf [2, 19] | Plant response rating, Kochia [8, 17] | Plant response rating, Kochia [8, 18] | Kochia plant response rating [8, 22] | Plant response rating, Goosegrass [12, 20] | Ragweed plant response rating [14, 22]
65: Plant response rating, Foxtail, Giant [4, 15] | Cocklebur plant response rating [6, 22] | Plant response rating, Morningglory [10, 20] | Plant response rating, Goosegrass [12, 15]
75: Plant response rating, Corn [1, 18] | Foxtail, Giant plant response rating (0 to 100 scale) [4, 16] | Plant response rating, Foxtail, Giant [4, 17] | Plant response rating, Kochia [8, 15] | Plant response rating, Morningglory [10, 15] | Morningglory plant response rating (0 to 100 scale) [10, 16] | Plant response rating, Morningglory [10, 21] | Plant response rating, Crabgrass, Large [11, 17] | Goosegrass plant response rating (0 to 100 scale) [12, 16] | Plant response rating, Goosegrass [12, 17] | Plant response rating, Ragweed [14, 15] | Ragweed plant response rating (0 to 100 scale) [14, 16] | Plant response rating, Ragweed [14, 20]
85: Plant response rating, Cocklebur [6, 18] | Plant response rating, Kochia [8, 19] | Plant response rating, Crabgrass, Large [11, 18] | Plant response rating, Goosegrass [12, 18] | Plant response rating, Ragweed [14, 18]
25: Plant response rating, Soybean [13, 15]
50: Soybean plant response rating (0 to 100 scale) [13, 23] | Plant response rating, Ragweed [14, 19]
90: Plant response rating, Velvetleaf [2, 15] | Plant response rating, Kochia [8, 20] | Plant response rating, Kochia [8, 21] | Plant response rating, Morningglory [10, 18] | Morningglory plant response rating [10, 22] | Plant response rating, Ragweed [14, 21]
40: Plant response rating, Foxtail, Green [9, 15]
70: Plant response rating, Crabgrass, Large [11, 19] | Plant response rating, Soybean [13, 17] | Plant response rating, Soybean [13, 18]
60: Plant response rating, Corn [1, 17] | Plant response rating, Cocklebur [6, 17] | Crabgrass, Large plant response rating (0 to 100 scale) [11, 16]
10: Plant response rating, Johnsongrass [3, 17] | Plant response rating, Johnsongrass [3, 18] | Plant response rating, Ryegrass, Italian [5, 18] | Plant response rating, Cocklebur [6, 21]
80: Plant response rating, Foxtail, Giant [4, 18] | Kochia plant response rating (0 to 100 scale) [8, 16] | Foxtail, Green plant response rating (0 to 100 scale) [9, 16] | Plant response rating, Foxtail, Green [9, 17] | Plant response rating, Foxtail, Green [9, 18] | Plant response rating, Morningglory [10, 17] | Plant response rating, Ragweed [14, 17]
98: Velvetleaf plant response rating (0 to 100 scale) [2, 16] | Plant response rating, Velvetleaf [2, 17] | Plant response rating, Crabgrass, Large [11, 20] | Plant response rating, Crabgrass, Large [11, 21] | Plant response rating, Goosegrass [12, 21] | Goosegrass plant response rating [12, 22]
0: Plant response rating, Corn [1, 15] | Plant response rating, Corn [1, 19] | Plant response rating, Corn [1, 20] | Plant response rating, Corn [1, 21] | Corn plant response rating [1, 22] | Plant response rating, Johnsongrass [3, 15] | Johnsongrass plant response rating (0 to 100 scale) [3, 16] | Plant response rating, Johnsongrass [3, 19] | Plant response rating, Johnsongrass [3, 20] | Plant response rating, Johnsongrass [3, 21] | Johnsongrass plant response rating [3, 22] | Plant response rating, Foxtail, Giant [4, 19] | Plant response rating, Foxtail, Giant [4, 20] | Plant response rating, Ryegrass, Italian [5, 15] | Plant response rating, Ryegrass, Italian [5, 19] | Plant response rating, Ryegrass, Italian [5, 20] | Plant response rating, Ryegrass, Italian [5, 21] | Ryegrass, Italian plant response rating [5, 22] | Plant response rating, Cocklebur [6, 15] | Cocklebur plant response rating (0 to 100 scale) [6, 16] | Plant response rating, Cocklebur [6, 19] | Plant response rating, Cocklebur [6, 20] | Plant response rating, Blackgrass [7, 15] | Blackgrass plant response rating (0 to 100 scale) [7, 16] | Plant response rating, Blackgrass [7, 17] | Plant response rating, Blackgrass [7, 19] | Plant response rating, Blackgrass [7, 20] | Plant response rating, Blackgrass [7, 21] | Blackgrass plant response rating [7, 22] | Plant response rating, Foxtail, Green [9, 19] | Plant response rating, Foxtail, Green [9, 20] | Plant response rating, Foxtail, Green [9, 21] | Plant response rating, Morningglory [10, 19]

Cc1ccc(-c2ncc(C(=O)C3=C(O)CCCC3=O)c(=O)n2-c2ccccc2)cc1 [Compound 80]
75: Plant response rating, Foxtail, Giant [4, 15] | Plant response rating, Crabgrass, Large [11, 15] | Goosegrass plant response rating (0 to 100 scale) [12, 16] | Plant response rating, Soybean [13, 15] | Plant response rating, Ragweed [14, 18]
10: Plant response rating, Johnsongrass [3, 17] | Cocklebur plant response rating (0 to 100 scale) [6, 16] | Plant response rating, Blackgrass [7, 18]
45: Plant response rating, Johnsongrass [3, 18] | Plant response rating, Cocklebur [6, 17]
0: Plant response rating, Johnsongrass [3, 15] | Johnsongrass plant response rating (0 to 100 scale) [3, 16] | Plant response rating, Ryegrass, Italian [5, 15] | Ryegrass, Italian plant response rating (0 to 100 scale) [5, 16] | Plant response rating, Cocklebur [6, 15] | Plant response rating, Blackgrass [7, 15] | Blackgrass plant response rating (0 to 100 scale) [7, 16] | Plant response rating, Kochia [8, 15]
50: Plant response rating, Ragweed [14, 15]
70: Plant response rating, Goosegrass [12, 15]
90: Foxtail, Giant plant response rating (0 to 100 scale) [4, 16] | Plant response rating, Foxtail, Green [9, 15] | Plant response rating, Crabgrass, Large [11, 17] | Plant response rating, Soybean [13, 17]
35: Corn plant response rating (0 to 100 scale) [1, 16]
60: Plant response rating, Kochia [8, 18] | Ragweed plant response rating (0 to 100 scale) [14, 16]
80: Crabgrass, Large plant response rating (0 to 100 scale) [11, 16] | Plant response rating, Goosegrass [12, 17] | Soybean plant response rating (0 to 100 scale) [13, 23]
65: Plant response rating, Corn [1, 17] | Plant response rating, Corn [1, 18] | Plant response rating, Cocklebur [6, 18] | Plant response rating, Ragweed [14, 17]
20: Kochia plant response rating (0 to 100 scale) [8, 16] | Plant response rating, Kochia [8, 17]
100: Velvetleaf plant response rating (0 to 100 scale) [2, 16] | Plant response rating, Velvetleaf [2, 17] | Plant response rating, Velvetleaf [2, 18] | Morningglory plant response rating (0 to 100 scale) [10, 16] | Plant response rating, Morningglory [10, 17] | Plant response rating, Morningglory [10, 18]
98: Plant response rating, Foxtail, Green [9, 18]
85: Plant response rating, Velvetleaf [2, 15] | Plant response rating, Morningglory [10, 15] | Plant response rating, Goosegrass [12, 18]
5: Plant response rating, Corn [1, 15] | Plant response rating, Ryegrass, Italian [5, 17] | Plant response rating, Ryegrass, Italian [5, 18] | Plant response rating, Blackgrass [7, 17]
95: Plant response rating, Foxtail, Giant [4, 17] | Plant response rating, Foxtail, Giant [4, 18] | Foxtail, Green plant response rating (0 to 100 scale) [9, 16] | Plant response rating, Foxtail, Green [9, 17] | Plant response rating, Crabgrass, Large [11, 18] | Plant response rating, Soybean [13, 18]
